Columns and labels:
HL-525 cells = experiment: Cell growth (cell counts); type: cell-based, human; settings: 6 d, 3 nM TPA, 1 μM RA, 400 nM Vit D3
Experimental: Cell counts were determined by hemocytometer chamber counting. Immunofluorescence tests for reactivity with the OKM1 antibody (Ortho Pharmaceutical Corp., Raritan, N.J.) were performed as previously described (Murao et al., 1983).

mda-6 (WAF1/CIP1/SDI1) = experiment: Induction of mda-6 (WAF1/CIP1/SDI1) expression in HL-60 cells (Northern blotting, RT-PCR); type: cell-based, human; settings: TPA 3 nM, Vit D3 400 nM, RA 1 μM, DMSO 1%
Experimental: HL-60 cells were originally provided by Dr. R. C. Gallo (National Cancer Institute, Bethesda, Md.) (Collins et al., 1978; Huberman & Callaham, 1979). HL-60 cells designated HL-525 were derived by cloning HL-60 cells after subculturing 102 times in the presence of increasing concentrations (up to 3 μM) of TPA at 5- to 8-day intervals (Homma et al., 1986; Mitchell et al., 1986). […] Prior to the experiments described in this study, the HL-525 cells were subcultured more than 20 times in the absence of TPA. Cells were grown in 100-mm tissue culture dishes in RPMI 1640 medium supplemented with 20% fetal bovine serum, penicillin (100 units/ml) and streptomycin (100 μg/ml) (Grand Island Biological Co., NY) at 37° C. in an atmosphere of 5% CO2 in air in a humidified incubator. The 1,25-(OH)2D3(Vit D3) and TPA were dissolved in a final concentration of 0.01% DMSO, and all-trans retinoic acid (RA) was dissolved in 0.1% DMSO in culture medium. […]
RNA was purified by centrifugation through a CsC1 cushion as described by Chirgwin et al. (1979). […] Following hybridization, the filters were washed and exposed for autoradiography (Reddy et al., 1991; Su et al., 1991; Jiang et al., 1992). mda-6 and GAPDH gene expression were also determined by reverse transcription-polymerase chain reaction (RT-PCR) as described (Adollahi et al. 1991; Lin et al., 1994). […]

Row | SMILES | reduction in growth (cell numbers) (HL-525 cells) [%] | time of treatment at which mda-6 expression is induced (mda-6 (WAF1/CIP1/SDI1)) [h]
1 | CC1=C(/C=C/C(C)=C/C=C/C(C)=C/C(=O)O)C(C)(C)CCC1 [RA, trans-retinoic acid] | 35 | –
2 | CCCCCCCCCCCCCC(=O)O[C@@H]1[C@@H](C)[C@@]2(O)[C@@H](C=C(CO)C[C@]3(O)C(=O)C(C)=C[C@@H]23)[C@@H]2C(C)(C)[C@]12OC(C)=O [TPA, 12-O-tetradecanoyl-phorbol-13-acetate] | – | ≤ 2

Source: US7507792B2, “MDA-7 proteins and methods of use thereof” (The Trustees of Columbia University In The City of New York, priority 1993, dated 2009)
